Patent EP2601963B1, “N-ISOVALEROYL-L-GLUTAMYL-L-TRYPTOPHAN AS AN AGENT INHIBITING THE FORMATION OF ULCERS IN THE STOMACH AND THE DUODENUM” (Obshestvo S Ogranichennoj Otvetstvennostju "CytoNIR", priority 2010, dated 2015)

Legend:
[1] = system: stress-induced gastric ulcers; assay: Water-immersion stress model: gastric lesions, preventive treatment; assay type: in vivo, male Wistar rats; design: key to GA1 (gastroprotective activity calculated for number of lesions): GA1 = PI of control group / PI of treated group; key to GA2 (gastroprotective activity calculated for lesion size): GA2 = UI of control group / UI of treated group; key to Pauls Index: PI = mean lesions per group × % animals with lesions / 100; key to Ulcer Index: UI = mean lesion area in group × % animals with lesions / 100
Protocol: (§1) All studies were conducted on male Wistar rats weighing 220 ± 20 g, obtained from Rappolovo nursery (Leningrad oblast). For 14 days prior to the experiment, the animals were held in isolation. The animals were handled in accordance with the European Convention for the Protection of Vertebrate Animals used for Experimental and Other Scientific Purposes (Strasburg, 1986). The animals were held in standard plastic cages and fed a standard diet of PK120-3 (granulated feed in accordance with order # 1179 M3 USSR 10/10/1983) with a free access to water.
In each series, the animals were divided into experimental and control groups with 10 rats per group. The animals in the experimental groups were orally administered the claimed preparation or a comparator drug, and the control group animals received distilled water in the same amount.
The experimental animals were divided into 5 groups, 10 animals each. The animals received the following therapy: • control group received distilled water per os; • experimental group 1 received 0.1 mkg/kg N-isovaleroyl-L-glutamyl-L-tryptophan; • experimental group 2 received 10 mkg/kg N-isovaleroyl-L-glutamyl-L-tryptophan; • experimental group 3 received 200 mkg/kg of the comparator drug Sucralfate; • experimental group 4 received 50 mkg/kg of the comparator drug Misoprostol;
The experiment was conducted as follows: • The proposed drug, comparator drugs, and distilled water were administered once daily over 7 days, and on the day of the ulcerogenic stress induction one hour prior to the stress.
The rats deprived of food for 18 hrs. were placed into special cases and immersed in water vertically to the level of their xyphoids. The animals were held in this position for 5 hrs. at 23° C water temperature. After that, the animals were removed from the experiment.
(§2) Animals' body weight changes were monitored throughout the experiment. The experimental animals were then sacrificed by decapitation, and their blood was collected in test tubes. The stomachs were extracted, dissected along the major curve, rinsed with cold saline solution, and the mucosa was carefully examined through a magnifying glass under bright lights. The mucosa was inspected for color, the presence of hyperemia and its intensity. The number of lesions, which were differentiated into small round (less than 1 mm), linear, and large lesions (more than 1mm) and the size of the area they covered were calculated. The average number of lesions per one animal in a group and the percentage of animals with ulcers were also calculated. Pauls Index (PI) was used as an integral indicator of the number of lesions and was calculated as follows: • PI = average number of lesions in a group x % of animals with lesions/100 [Pauls F., Wick A.M.,Mac. Key E.M. et al. An assau method for anti ulcer substances // Gastroenterology.- 1947. #8.- p.p.774 - 782]. Ulcer index UI was calculated as: UI = average lesion area size in the group x % of animals with lesions/100; gastroprotective activity GA1 was calculated as: GA1 = PI of the control group/PI of the experimental group, GA2 = UI of the control group/UI of the experimental group. The proposed drug was considered active when GA ≥ 2.

[2] = system: indomethacin-induced gastric ulcers; assay: Indomethacin-induced ulcer model, preventive treatment: gastric lesions; assay type: in vivo, male Wistar rats; design: key to GA1 (gastroprotective activity calculated for number of lesions): GA1 = PI of control group / PI of experimental group; key to GA2 (gastroprotective activity calculated for lesion size): GA2 = UI of control group / UI of experimental group; key to Ulcer Index: UI = average lesion area size x % of animals with lesions/100; Small round Size / Total Size / Large round Size / Linear Size / Lesion Size: unit not given here
Protocol: as §1, §2
Five groups of 10 animals per group were prepared for the experiment as described in Example 1.
In each series of experiments, the animals were divided into experimental and control groups at 10 animals per group. The animals in the experimental group were orally administered the proposed medication or a comparator drug, and the control animals were given distilled water in the same amount. • control group received distilled water per os; • experimental group 1 received 0.1 mkg/kg N-isovaleroyl-L-glutamyl-L-tryptophan; • experimental group 2 received 10 mkg/kg N-isovaleroyl-L-glutamyl-L-tryptophan; • experimental group 3 received 200 mkg/kg of the comparator drug Sucralfate.
The efficacy of the course of preventive treatment with the claimed composition was evaluated 24 hrs. post indomethacin administration. The study was conducted as in Example 1.

[3] = 200 mg/kg + stress (so in the source)
[4] = 200 mg/kg, indomethacin-induced ulcers

With “N-isovaleroyl-L-glutamyl-L-tryptophan [VGT preparation]” the “# Lesions” value ([1]; 0.1 mkg/kg + stress) was 15.4 ± 2.1, the “% Animals with Ulcers” value ([1]; 0.1 mkg/kg + stress) was 90% and the “GA1 (gastroprotective activity calculated for number of lesions)” value ([1]; 0.1 mkg/kg + stress) was 1.59. The “GA2 (gastroprotective activity calculated for lesion size)” value ([1]; 0.1 mkg/kg + stress) was 2.58, the “Large round Amt.” value ([1]; 0.1 mkg/kg + stress) was 6.9 ± 1.4 and the “Large round Size” value ([1]; 0.1 mkg/kg + stress) was 4.4 ± 1.1. For the same substance, the “Lesion Size” value ([1]; 0.1 mkg/kg + stress) was 8.7 ± 2.0, the “Linear Amt.” value ([1]; 0.1 mkg/kg + stress) was 1.5 ± 0.7 and the “Linear Size” value ([1]; 0.1 mkg/kg + stress) was 2.4 ± 1.0. For the same substance, the “Pauls Index” value ([1]; 0.1 mkg/kg + stress) was 13.9, the “Small round Amt.” value ([1]; 0.1 mkg/kg + stress) was 7.0 ± 1.4 and the “Small round Size” value ([1]; 0.1 mkg/kg + stress) was 1.9 ± 0.4. The “Total Amt.” value ([1]; 0.1 mkg/kg + stress) was 15.4 ± 2.1, the “Total Size” value ([1]; 0.1 mkg/kg + stress) was 8.7 ± 2.0 and the “Ulcer Index” value ([1]; 0.1 mkg/kg + stress) was 7.83. The “# Lesions” value ([1]; 10 mkg/kg + stress) was 16.3 ± 1.5, the “% Animals with Ulcers” value ([1]; 10 mkg/kg + stress) was 100% and the “GA1 (gastroprotective activity calculated for number of lesions)” value ([1]; 10 mkg/kg + stress) was 1.36. The “GA2 (gastroprotective activity calculated for lesion size)” value ([1]; 10 mkg/kg + stress) was 2.08, the “Lesion Size” value ([1]; 10 mkg/kg + stress) was 9.7 ± 1.2 and the “Pauls Index” value ([1]; 10 mkg/kg + stress) was 16.3. The “Ulcer Index” value ([1]; 10 mkg/kg + stress) was 9.7, the “Large round Amt.” value ([1]; 10.0 mkg/kg + stress) was 5.7 ± 1.1 and the “Large round Size” value ([1]; 10.0 mkg/kg + stress) was 3.4 ± 0.7. For the same substance, the “Linear Amt.” value ([1]; 10.0 mkg/kg + stress) was 1.4 ± 0.3, the “Linear Size” value ([1]; 10.0 mkg/kg + stress) was 3.9 ± 1.4 and the “Small round Amt.” value ([1]; 10.0 mkg/kg + stress) was 9.2 ± 1.5. For the same substance, the “Small round Size” value ([1]; 10.0 mkg/kg + stress) was 2.5 ± 0.4, the “Total Amt.” value ([1]; 10.0 mkg/kg + stress) was 16.3 ± 1.5 and the “Total Size” value ([1]; 10.0 mkg/kg + stress) was 9.7 ± 1.2. For the same substance, the “size of lesions smaller than in the control group animals” value ([1]; stress, both doses) was 2.1 - 2.6 times, the “reduced the size of large lesions” value ([1]; stress, depending on the dose (0.1 mkg/kg by Table 1)) was 2.7 times and the “reduced the size of large lesions” value ([1]; stress, depending on the dose (10 mkg/kg by Table 1)) was 3.4 times.

With “aluminum complex of beta-D-fructofuranosyl-alpha-D-glucopyranoside octakis (hydrosulfate) [Sucralfate]” the “# Lesions” value [2, 3] was 5.4 ± 1.4, the “% Animals with Ulcers” value [2, 3] was 80% and the “GA1 (gastroprotective activity calculated for number of lesions)” value [2, 3] was 4.93. For the same substance, the “GA2 (gastroprotective activity calculated for lesion size)” value [2, 3] was 8.56, the “Lesion Size” value [2, 3] was 3.3 ± 1.2 and the PI [2, 3] was 4.32. The “Ulcer Index” value [2, 3] was 2.64, the “Large round Amount” value [2, 4] was 2.4 ± 0.8 and the “Large round Size” value [2, 4] was 1.0 ± 0.4. The “Linear Amount” value [2, 4] was 1.2 ± 0.4, the “Linear Size” value [2, 4] was 1.8 ± 0.9 and the “Small round Amount” value [2, 4] was 1.8 ± 0.6. For the same substance, the “Small round Size” value [2, 4] was 0.5 ± 0.2, the “Total Amount” value [2, 4] was 5.4 ± 1.4 and the “Total Size” value [2, 4] was 3.3 ± 1.2.
